Measurements taken from patent US20250099482A1, “TIP60 NEURO-EPIGENETIC MODULATORS” (Drexel University, priority 2023, published 2025).
Entries after “also recorded” stand apart in the source; their conditions may differ. One block for each compound: values may come before it.

Legend:
[1] = system: Drosophila Alzheimer's disease model (APP); experiment: Larval line crossing assay in APP Alzheimer's disease model; type: in vivo; settings: 3rd instar APP larvae, compound in fly food, range of concentrations
[2] = biological target: purified p300 HAT (Homo sapiens, UniProt Q09472); experiment: In vitro histone acetylation activity assay (p300); type: biochemical; settings: HAT assays, 20 μM
Sequence of purified p300 HAT (Q09472 whole entry, species assumed): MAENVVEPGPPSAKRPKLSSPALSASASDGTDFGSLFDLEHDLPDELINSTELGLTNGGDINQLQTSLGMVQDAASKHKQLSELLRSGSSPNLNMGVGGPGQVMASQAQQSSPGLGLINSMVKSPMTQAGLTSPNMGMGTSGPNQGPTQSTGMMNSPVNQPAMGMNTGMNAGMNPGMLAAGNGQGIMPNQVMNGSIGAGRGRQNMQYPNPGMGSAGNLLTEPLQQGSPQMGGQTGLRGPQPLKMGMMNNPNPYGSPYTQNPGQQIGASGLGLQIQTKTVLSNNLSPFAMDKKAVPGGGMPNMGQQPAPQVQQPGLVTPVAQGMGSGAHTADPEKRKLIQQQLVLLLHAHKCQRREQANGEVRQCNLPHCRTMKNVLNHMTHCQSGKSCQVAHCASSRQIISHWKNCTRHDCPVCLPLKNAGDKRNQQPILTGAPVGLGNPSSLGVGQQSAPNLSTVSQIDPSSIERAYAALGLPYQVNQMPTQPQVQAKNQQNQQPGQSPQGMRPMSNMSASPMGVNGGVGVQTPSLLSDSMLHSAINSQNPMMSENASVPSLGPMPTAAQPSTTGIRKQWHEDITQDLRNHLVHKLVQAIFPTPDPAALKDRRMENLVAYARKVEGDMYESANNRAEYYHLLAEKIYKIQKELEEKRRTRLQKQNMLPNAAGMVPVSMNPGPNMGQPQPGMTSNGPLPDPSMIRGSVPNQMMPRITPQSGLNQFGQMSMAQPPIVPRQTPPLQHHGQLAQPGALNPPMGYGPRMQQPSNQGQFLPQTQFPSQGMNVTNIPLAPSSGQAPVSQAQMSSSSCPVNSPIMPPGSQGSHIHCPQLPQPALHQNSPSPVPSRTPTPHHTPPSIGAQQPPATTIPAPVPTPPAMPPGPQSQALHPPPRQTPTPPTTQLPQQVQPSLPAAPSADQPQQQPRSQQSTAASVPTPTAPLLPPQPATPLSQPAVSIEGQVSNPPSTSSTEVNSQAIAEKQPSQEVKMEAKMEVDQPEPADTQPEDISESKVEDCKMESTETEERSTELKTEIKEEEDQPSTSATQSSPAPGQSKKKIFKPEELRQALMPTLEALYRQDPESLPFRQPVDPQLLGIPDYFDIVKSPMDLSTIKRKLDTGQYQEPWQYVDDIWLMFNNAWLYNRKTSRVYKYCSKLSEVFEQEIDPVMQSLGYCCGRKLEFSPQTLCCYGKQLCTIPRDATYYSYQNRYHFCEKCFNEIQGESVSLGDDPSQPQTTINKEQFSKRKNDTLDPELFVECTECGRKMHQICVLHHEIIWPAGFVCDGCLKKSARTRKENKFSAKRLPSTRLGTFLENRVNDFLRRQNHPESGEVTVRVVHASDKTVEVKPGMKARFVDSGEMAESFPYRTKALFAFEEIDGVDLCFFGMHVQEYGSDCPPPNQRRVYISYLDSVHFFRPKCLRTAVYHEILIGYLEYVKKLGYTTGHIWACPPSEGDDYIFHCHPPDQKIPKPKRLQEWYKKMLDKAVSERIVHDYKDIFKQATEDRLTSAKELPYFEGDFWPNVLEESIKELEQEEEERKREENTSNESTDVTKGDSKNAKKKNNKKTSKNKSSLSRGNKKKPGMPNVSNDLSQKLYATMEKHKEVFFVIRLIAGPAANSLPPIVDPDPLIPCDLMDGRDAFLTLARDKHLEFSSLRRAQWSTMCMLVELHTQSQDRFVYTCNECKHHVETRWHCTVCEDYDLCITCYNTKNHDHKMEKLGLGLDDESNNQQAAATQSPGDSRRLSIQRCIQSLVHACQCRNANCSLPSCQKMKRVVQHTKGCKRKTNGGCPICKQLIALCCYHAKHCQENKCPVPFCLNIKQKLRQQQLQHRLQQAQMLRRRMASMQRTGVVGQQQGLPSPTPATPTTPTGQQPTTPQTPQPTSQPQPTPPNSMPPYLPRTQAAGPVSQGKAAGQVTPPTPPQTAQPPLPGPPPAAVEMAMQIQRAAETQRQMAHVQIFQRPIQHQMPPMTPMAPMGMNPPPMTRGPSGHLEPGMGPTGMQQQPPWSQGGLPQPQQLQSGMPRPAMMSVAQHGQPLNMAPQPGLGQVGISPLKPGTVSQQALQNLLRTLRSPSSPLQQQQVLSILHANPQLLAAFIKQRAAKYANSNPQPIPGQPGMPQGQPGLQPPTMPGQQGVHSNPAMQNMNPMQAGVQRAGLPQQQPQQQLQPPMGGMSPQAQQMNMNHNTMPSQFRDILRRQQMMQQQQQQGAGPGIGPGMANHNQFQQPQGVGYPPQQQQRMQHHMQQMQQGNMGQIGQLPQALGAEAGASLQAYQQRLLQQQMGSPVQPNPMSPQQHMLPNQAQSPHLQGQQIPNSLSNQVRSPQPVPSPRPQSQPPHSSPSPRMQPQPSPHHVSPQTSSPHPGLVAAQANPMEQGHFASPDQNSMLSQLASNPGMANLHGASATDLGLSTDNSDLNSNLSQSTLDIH

[3] = system: Drosophila Tip60 knockdown model; experiment: Larval line crossing / reaching the wall assay in Tip60-RNAi knockdown model; type: in vivo; settings: for rescue of Tip60 knockdown induced locomotion deficits (line crossing in 30 seconds): 3rd instar Tip60-RNAi larvae, compound in fly food
[4] = system: Drosophila Alzheimer's disease model (APP); experiment: Eclosion assay (lethality) in APP Alzheimer's disease model; type: in vivo; settings: compound in fly food
Description: All fly lines were raised on standard yeast Drosophila medium (Applied Scientific Jazz Mix Drosophila Food, Thermo Fischer Scientific) at 25° C. with 12/12-h light/dark cycle. The pan-neuronal driver elav^C155-Gal4, transgenic Tip60-RNAi-mediated knock-down (UAS-Tip60 RNAi) and the transgenic UAS lines carrying human APP 695 isoform (UAS-APP) were obtained from Bloomington Drosophila Stock Center. For neural Tip60 knockdown and APP expression, the elav^C155-Gal4 driver line was crossed with UAS-Tip60RNAi or UAS-APP and the progeny was collected as Tip60 knockdown model (elav^C155-Gal4/UAS-Tip60 RNAi) or APP associated AD model (elav^C155-Gal4/UAS-APP). For wild-type control, the elav^C155-Gal4 driver line was crossed with itself. Model validation was performed by confirming reduced Tip60 mRNA levels in Tip60 RNAi model as compared to wildtype using real-time PCR.
Compounds were synthesized by Enamine, Princeton Molecular and ChemBridge. […]
The P10 and P13 compound's functional effectiveness in rescuing AD associated lethality that occurs as a culmination of later stage neurodgenerative progression was assessed using an eclosion assay (FIG. 9C). Briefly, larvae were reared on food either with compounds dissolved in DMSO or without compounds (DMSO vehicle) and the number of flies that eclosed from their pupal cases over a 7 day period were counted.

[5] = biological target: T1, Tip60 (Homo sapiens, UniProt Q92993); experiment: In vitro histone acetylation activity assay (Tip60); type: biochemical; settings: 20 μM compound, vs Tip60+DMSO
T1 construct: purchased Active Motif 81975
T1 sequence (Q92993 whole entry): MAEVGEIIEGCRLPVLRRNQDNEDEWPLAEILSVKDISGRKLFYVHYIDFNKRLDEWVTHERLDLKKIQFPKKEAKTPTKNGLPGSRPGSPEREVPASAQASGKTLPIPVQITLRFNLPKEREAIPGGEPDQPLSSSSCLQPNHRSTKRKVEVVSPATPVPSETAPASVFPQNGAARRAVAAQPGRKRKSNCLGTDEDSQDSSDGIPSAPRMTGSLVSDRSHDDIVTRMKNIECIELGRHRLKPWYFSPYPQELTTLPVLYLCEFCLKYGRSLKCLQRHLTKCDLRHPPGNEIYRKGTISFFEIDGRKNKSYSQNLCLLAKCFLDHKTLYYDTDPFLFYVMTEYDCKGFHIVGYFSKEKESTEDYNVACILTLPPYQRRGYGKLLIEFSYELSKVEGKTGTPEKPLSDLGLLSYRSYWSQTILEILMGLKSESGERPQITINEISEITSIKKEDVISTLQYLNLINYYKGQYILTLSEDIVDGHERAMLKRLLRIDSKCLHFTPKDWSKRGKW
Description: HAT assays were performed according to manufacturer's instructions in HAT Assay Kit (Active Motif 56100). Briefly, 375 ng Tip60 protein (Active motif: 81975) was incubated with 50 μM Histone H4 peptide, 50 μM Acetyl-CoA and indicated drug concentrations for 30 minutes at room temperature. After stopping the reaction and developing free sulfhydryl groups, […] was recorded at excitation 360-390 nm and emission 460-490 nm using Glomax fluorescence microplate reader. Specific enzyme activity (pmol/min/μg) was calculated by 1. Subtracting background fluorescence from that of assay samples to obtain arbitrary fluorescence units (AFU); and (2) Dividing the difference by the incubation time to obtain AFU/minute. 3. Dividing the AFU/minute by the slope of standard curve in AFU/pmol to obtain the rate in pmol/minute. 4. Dividing pmol/min by the amount of enzyme used to obtain final readings in pmol/minute/μg.

specificity for Tip60 over p300 [2]: highest specificity for Tip60 over p300
SMILES: Cc1nc2c(cnn2C(C)C)cc1C(=O)NCc1ccc([C@H](C)O)c(C)n1 [Compound P10, (S)-N-((5-(1-hydroxyethyl)-6-methylpyridin-2-yl)methyl)-1-isopropyl-6-methyl-1H-pyrazolo[3,4-b]pyridine-5-carboxamide]
rescue of AD associated locomotion defects (line crossing, reaching wall) [1]: consistent and robust rescue
rescue of Tip60 knockdown induced locomotion deficits (line crossing in 30 seconds) [3]: rescue locomotor speed defect
rescue of AD associated lethality (flies eclosed over 7 day period) [4]: significant rescue of lethality
effect on Tip60's HAT activity (Histone H4 acetylation, fluorescence) [5]: enhanced Tip60's HAT activity; also recorded: highest level of Tip60 HAT activation

specificity for Tip60 over p300 [2]: highest specificity for Tip60 over p300
SMILES: CC(=O)Nc1cccc(CNC(=O)c2cnc3ccccc3c2C(F)(F)F)c1 [Compound P13, N-(3-acetamidobenzyl)-4-(trifluoromethyl)quinoline-3-carboxamide]
rescue of AD associated locomotion defects (line crossing, reaching wall) [1]: consistent and robust rescue
ability of larvae to cross plate and reach the wall ([3]; 1 μM drug concentration): improved the performance of larvae in reaching the wall
restoration of locomotor activity (line crossing) ([3]; 1 μM drug concentration): best performer in restoring locomotor activity to wild-type levels
rescue of Tip60 knockdown induced locomotion deficits (line crossing in 30 seconds) [3]: rescue locomotor speed defect
rescue of AD associated lethality (flies eclosed over 7 day period) [4]: significant rescue of lethality; also recorded: more robust effects
effect on Tip60's HAT activity (Histone H4 acetylation, fluorescence) [5]: enhanced Tip60's HAT activity; also recorded: highest level of Tip60 HAT activation
